The results in this text go back to US20220281930A1, “COMPOSITIONS AND METHODS FOR THE TREATMENT OF PATHOLOGICAL PAIN AND ITCH” (DUKE UNIVERSITY, priority 2019, published 2022).

The subject of one series is KCC2. Description: Immuno-cytochemistry morphometry of primary human cortical neurons, KCC2. It counts as cell-based. Conditions: 400 nM KP. The method, then:
The neuron-enriched cultures were established from fetal cortical specimens at 15-20 weeks of gestation. The protocols for tissue processing complied with all federal and institutional guidelines. The cultures were plated on PEI (polyethyleneimine solution) substrate and maintained in Neurobasal media supplemented with B27 as previously described (Pelsman et al., 2003, International journal of developmental neuroscience 21:117-124; Yeo et al., 2013, Proc Natl Acad Sci USA 110:4315-4320).
For immunostaining, the cultures were treated for 2-4 days with vehicle or 400 nM KP, fixed with 4% PFA at day 10, and processed for double-staining with anti-KCC2 and anti-synaptophysin or anti-NeuN (see Table 1).
The 0.34 micrometer confocal slices through entire cell layers at different optical fields (n=17-28 for each group) of the fixated cultures were acquired using a Zeiss LSM700 confocal microscope.
Image Z-stacks were analyzed using Imaris 9.2.1 software. Optical density intensity sum values for each stack/channel were divided by corresponding data volumes and the resulting values were normalized to the number of specifically labeled cells within each stack. There were no significant differences in the number of cells between vehicle and KP-treated groups.

Series [1] concerns motor function and coordination of mice. In words: Rotarod assay. It counts as in vivo, mouse. Particulars: 10, 30 mg/kg i.p.; one-time exception high-dose day 7. The protocol: For assessment in rotarod (RR), all animals received training prior to experiments; mice were placed on the RR apparatus set in an accelerating rotational speed mode (3-30 rpm, 300 s max) per trial. Following training, the average time to fall from the rotating cylinder over three trials was recorded as baseline latency (4-40 rpm, 300 s max/trial). Mice were injected daily with either vehicle or drug compounds before RR tests. Latency to fall was measured (4-40 rpm, 300 s max/trial (inter-trial interval is at least 15 min). The average latency to fall from the rod was recorded for each animal.
With these beneficial effects of KP on pathologic pain and itch, whether KP had undesirable effects on the CNS in terms of sedation, impairment of motor stamina, balance and coordination was assessed. […] Conditioned place preference was used to test whether KP (30 mg/kg; i.p.) can trigger brain reward mechanisms (Jackson et al., 2019, Psychopharmacology, 236(12):3593-3599; Sora et al., 1998, Proc Natl Acad Sci USA 95:7699-7704), and there were no such effects (FIG. 4F). […] In pathologic pain models, KP acts centrally to mediate analgesic effects, and thus relies on KCC2 chloride extrusion.
For orientation: In the rotarod test animals must keep their balance on a rotating rod.

A further series has as its system brain reward mechanisms. Description: Conditioned place preference (CPP). Particulars: 30 mg/kg i.p.; KP vs vehicle. It counts as in vivo, mouse. The protocol:
Conditioned place preference (CPP) was conducted using a CPP box, which consists of two conditioning chambers distinguished by visual and sensory cues, along with a small buffering chamber. All mice received a 3-day preconditioning habituation period with free access to both conditioning chambers and the time spent in each chamber was recorded for 15 min on day 3 after habituation. On conditioning days (day 4-10), mice first received the vehicle control (i.p. 5% DMSO, 5% Tween-80 in normal saline) paired with a randomly chosen chamber in the morning. After 4 hours, mice received KP (i.p. 30 mg/kg) or vehicle, paired with the other chamber. During the conditioning, mice were allowed to stay only in the paired chamber for 15 min without access to other chambers. On test day (d11), mice were placed in the buffering chamber with free access to both conditioning chambers and choice behavior was recorded for 15 min. The CPP scores were calculated as post-conditioning time minus preconditioning time spent in the paired chamber.
With these beneficial effects of KP on pathologic pain and itch, whether KP had undesirable effects on the CNS in terms of sedation, impairment of motor stamina, balance and coordination was assessed. […]

Another series relates to ß-cat. In words: ß-cat nuclear translocation in primary neurons, immunolabeling. It counts as cell-based, rat. Conditions: KP treatment. The method, then:
Immunocytochemistry labeling of cultured neuronal cells was carried out as previously described (Liedtke et al., 2013, Small 9, 1066-1075; Yeo et al., 2009, J Neurosci 29:14652-14662; Yeo et al., 2013, Proc Natl Acad Sci USA 110:4315-4320). Primary antibodies are shown in the antibody table. Anti-KCC2 primary antibodies were validated with developing rat primary cortical neurons; we observed an increase in staining pattern that tightly matched increase of KCC2 mRNA expression (Liedtke et al., 2013, Small 9:1066-1075; Yeo et al., 2009, J Neurosci 29:14652-14662.; Yeo et al., 2013, Proc Natl Acad Sci USA 110:4315-4320). Secondary antibodies used were goat anti-mouse IgG Alexa Fluor 594 (Invitrogen A11032) and goat anti-rabbit IgG Alexa Fluor 594 (Invitrogen A11012). DAPI stain was obtained from Sigma Aldrich (D9542). Stained cells were observed using an inverted confocal microscope (Zeiss LSM780).
We obtained stacks of images recorded at 0.35 μm intervals through separate channels with a 63× oil-immersion lens (NA, 1.40, refraction index, 1.45). Zen software (Zeiss) was used to construct composite images from each optical series by combining the images recorded through the different channels, and the same software was used to obtain Z projection images (image resolution: 1024×1024 pixels; pixel size: 0.11 μm). ImageJ was used for morphometry. […]

As for `O=C1Cc2c([nH]c3ccc(Br)cc23)-c2ccccc2N1` [kenpaullone, 9-bromo-7,12-dihydro-indolo [3,2-d] [1]benzazepin-6(5H)-one], in the series on KCC2, the “increased KCC2 expression relative to vehicle” value was 62%. For the same molecule, in series [1], the “elapsed time on the rotarod” value was “does not affect motor stamina and coordination”. Besides, in the series on brain reward mechanisms, the CPP scores result was “No significant difference in CPP scores”. In the series on ß-cat, the “catenin translocation into the nucleus (FIG. 9)” value was “significantly increases”.
